Reference: article PMC8654833 (Scientific Reports, 2021)
Several values for one entry are separate records, joined by “and”; a condition that tells them apart may be missing. Equal values may be shown once.

Legend:
[1] = Plasma and brain distribution after single IP injection; settings: CD-1, mouse, 10 mg/kg
5-HT5A = target: T1, 5-HT5A (Homo sapiens, UniProt P47898); assay: Radioligand binding competition dose-response (Euroscreen), 5-HT5A
T1 construct: Euroscreen FAST (contract assay)
Description: (§1) This study included binding assays (87 GPCR targets), measured as % of binding inhibition of a reference radioligand, as well as uptake and enzyme assays (19 targets), the latter measured as % inhibition of control enzyme activity. […] It was performed by radioligand binding competition by Euroscreen (Euroscreen FAST, Belgium). The following nanomolar concentrations were tested in duplicate: 0.001, 0.01, 0.1, 1, 10, 100, 1000, 10,000. Dose–response curves were fitted with the least squares method. IC50 results are shown as pIC50, corresponding to the negative log10 of IC50 in molar.

[2] = test system: microglia and motor neurons in the ventral spinal cord; assay: Iba1 and ChAT immunostaining of lumbar spinal cord; type: in vivo; settings: Sod1^G86R mice
Description: We then sought to characterize whether BW modulated microglial physiology and used RT-qPCR to measure microglia related genes in the cervical and thoracic spinal cord of animals treated with either vehicle or 3 mg/kg/d of BW. […] We next wanted to see if these changes in gene expression were accompanied by modification of microglial activation in spinal cord of treated mice. Iba1 + cells were classified in 4 different activation states (resting, activated, phagocytic or dystrophic).
Lumbar spinal cord was dissected and cryopreserved before OCT inclusion. Samples were cut with a cryostat (Leica CM30505) at 20 µm of thickness. Iba1 (1:100, Sigma cat#SAB2702364, RRID: AB_2820253) and ChaT (1:100, Millipore cat#AB144P) immunostainings were performed using DAB peroxidase technique to assess microglial integrity and motor neuron degeneration. Images were acquired using a Leica DM750 microscope at × 10 magnification. Cells were counted in the ventral horn in a standardized zone with n = 4–10 images per animal, and subsequently classified using FIJI software (RRID: SCR_002285)[23],[24].

5-HT1B = target: T2, 5-HT1B (Homo sapiens, UniProt P28222); assay: Radioligand binding competition dose-response (Euroscreen), 5-HT1B
T2 construct: Euroscreen FAST (contract assay)
Description: as §1

5-HT1A = target: T3, 5-HT1A (Homo sapiens, UniProt P08908); assay: Radioligand binding competition dose-response (Euroscreen), 5-HT1A
T3 construct: Euroscreen FAST (contract assay)
T3 sequence (P08908 1-422): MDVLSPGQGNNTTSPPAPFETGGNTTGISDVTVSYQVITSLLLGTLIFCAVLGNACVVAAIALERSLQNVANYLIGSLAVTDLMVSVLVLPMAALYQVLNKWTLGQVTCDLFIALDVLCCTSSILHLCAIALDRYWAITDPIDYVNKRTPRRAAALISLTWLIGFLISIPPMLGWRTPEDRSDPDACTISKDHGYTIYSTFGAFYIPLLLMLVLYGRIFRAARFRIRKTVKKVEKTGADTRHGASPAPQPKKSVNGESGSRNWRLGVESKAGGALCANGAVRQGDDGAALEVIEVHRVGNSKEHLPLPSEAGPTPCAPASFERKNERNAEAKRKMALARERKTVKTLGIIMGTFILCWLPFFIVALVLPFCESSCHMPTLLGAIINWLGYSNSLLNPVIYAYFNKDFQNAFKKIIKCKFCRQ
Description: as §1

Sod1^G86R mice = assay: Body weight, grip strength, onset and survival follow-up in ALS mouse model; type: in vivo; settings: for median survival: p > 0.05 vs vehicle (109 days)
Description: Osmotic mini-pumps were collected at endstage, and mini-pump emptying was systematically checked. After mini-pump implantation, mice were longitudinally followed for body weight, grip strength and survival.
To this aim, we measured mitral valve thickness using histology (Fig. 3).
Sod1^G86R mice on FVB/N background were produced by rapid lineage extension at Charles River facility, France. The resulting animals were F1 hybrid FVB/NRj and FVB/NCrl. During experimentation, mice were housed at the animal facility of the Faculty of Medicine of the University of Strasbourg, in a conventional sanitary status. […] We included both females and males in equal proportions. […] Mice were sacrificed at end-stage by lethal intraperitoneal injection of pentobarbital (Doléthal 120 mg/kg, Vetoquinol, France). Spinal cord, brain and blood samples were then collected. All animal care and procedures were in accordance with institutional guidelines and European regulations.
Mice were visually monitored daily for any potential ethical issue. Body weight and muscular strength were monitored twice a week. Muscular strength was assessed using a gripmeter test (ALG01, Bioseb, France). Results are the mean of three successive measures and were normalized by body weight. Onset of the pathology was calculated as the time between birth and peak of body weight. Duration of the disease is the time between onset and death of the mouse. End-stage was defined as the inability of the animal to turn around after 3 s placed on the back, and subsequent euthanasia followed. Muscular strength and weight loss are presented as percent loss from disease onset. […] Survival is presented as Kaplan–Meier curves.

DAT = target: T4, DAT (Homo sapiens, UniProt Q01959); assay: Single-concentration radioligand binding screen (Eurofins Cerep), dopamine transporter; settings: single concentration 10 µM screen, [3H]BTCP
T4 construct: Euroscreen FAST (contract assay)
Description: as §1

Ca^2+ channel, ds [3] = assay: Radioligand binding competition dose-response (Euroscreen), Ca2+ channel diltiazem site
Description: as §1

Ca^2+ channel, ds [4] = assay: Single-concentration radioligand binding screen (Eurofins Cerep), Ca2+ channel diltiazem site; settings: single concentration 10 µM screen, [3H]diltiazem
Description: as §1

5-HT2B = 5-HT2B (Homo sapiens, UniProt P41595); assay: biochemical; settings: read-out: %Binding inhibition at 10 µM, dose-response study, maximal concentration 10 µM, [3H]mesulergine
mitral valve = assay: Mitral valve thickness by histology (hematoxylin/eosin); type: in vivo; settings: Sod1^G86R mice, 3 mg/kg/d; vehicle 57.7 µm
Description: To this aim, we measured mitral valve thickness using histology (Fig. 3). […] The lack of beneficial effect of BW on survival and motor function is not due to the developpement of valvulopathy nor cardiac failure. Thus, BW is not protective in Sod1^G86R mice independently of any potential cardiotoxicity.
After dissection and rinse with PBS 1X, hearts were fixed for 72 h in formaldehyde 4% solution. After paraffin inclusion, cuts of 4 µm thickness were made. Hematoxylin/eosin staining was performed on these cuts. Inclusion and staining were performed by the department of histopathology and embyology of the mouse clinical institute (ICS, Illkirch-Graffenstaden). Valve imaging was performed with a Leica DFC425C camera mounted on a microscope Leica DM750, at × 10 magnification (cat# 506228, 10x/0.25 HI PLAN ∞/−), with LAS V4.8 software (Leica Microsystems). […] Average thickness was determined by rapporting the area on the length of the leaflet.

T2 sequence (P28222 whole entry, species assumed): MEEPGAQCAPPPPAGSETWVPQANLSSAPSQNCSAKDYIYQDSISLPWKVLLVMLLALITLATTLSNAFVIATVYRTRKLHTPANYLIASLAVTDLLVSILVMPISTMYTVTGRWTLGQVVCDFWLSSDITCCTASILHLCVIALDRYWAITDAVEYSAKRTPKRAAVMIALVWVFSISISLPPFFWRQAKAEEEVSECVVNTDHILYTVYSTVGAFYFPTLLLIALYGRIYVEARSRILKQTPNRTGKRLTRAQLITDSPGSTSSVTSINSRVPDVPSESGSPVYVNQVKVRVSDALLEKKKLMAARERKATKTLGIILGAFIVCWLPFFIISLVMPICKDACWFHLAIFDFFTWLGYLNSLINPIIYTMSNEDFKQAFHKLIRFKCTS
T1 sequence (P47898 whole entry, species assumed): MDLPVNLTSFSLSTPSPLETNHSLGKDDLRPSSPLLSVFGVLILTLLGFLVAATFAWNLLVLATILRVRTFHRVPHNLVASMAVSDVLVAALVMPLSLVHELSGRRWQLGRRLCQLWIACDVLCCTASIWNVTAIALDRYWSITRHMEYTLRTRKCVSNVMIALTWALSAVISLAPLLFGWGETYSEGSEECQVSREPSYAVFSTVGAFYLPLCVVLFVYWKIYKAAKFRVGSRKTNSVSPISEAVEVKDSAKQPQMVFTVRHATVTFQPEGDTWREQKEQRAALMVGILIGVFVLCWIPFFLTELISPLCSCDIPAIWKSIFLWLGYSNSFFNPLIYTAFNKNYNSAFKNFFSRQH
Sequence of 5-HT2B (P41595 whole entry, species assumed): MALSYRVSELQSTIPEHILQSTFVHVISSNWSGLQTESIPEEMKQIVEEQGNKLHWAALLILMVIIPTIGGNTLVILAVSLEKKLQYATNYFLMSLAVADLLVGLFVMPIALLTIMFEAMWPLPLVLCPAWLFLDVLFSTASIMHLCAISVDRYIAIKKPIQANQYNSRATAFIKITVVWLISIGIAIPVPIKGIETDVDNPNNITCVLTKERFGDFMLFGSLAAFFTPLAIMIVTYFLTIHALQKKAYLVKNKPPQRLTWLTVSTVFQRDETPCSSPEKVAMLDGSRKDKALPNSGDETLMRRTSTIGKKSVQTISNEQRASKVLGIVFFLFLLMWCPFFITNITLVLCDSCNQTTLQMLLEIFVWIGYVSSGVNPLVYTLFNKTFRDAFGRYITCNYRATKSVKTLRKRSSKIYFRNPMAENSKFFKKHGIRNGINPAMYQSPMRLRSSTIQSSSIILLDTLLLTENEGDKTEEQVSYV
T4 sequence (Q01959 whole entry, species assumed): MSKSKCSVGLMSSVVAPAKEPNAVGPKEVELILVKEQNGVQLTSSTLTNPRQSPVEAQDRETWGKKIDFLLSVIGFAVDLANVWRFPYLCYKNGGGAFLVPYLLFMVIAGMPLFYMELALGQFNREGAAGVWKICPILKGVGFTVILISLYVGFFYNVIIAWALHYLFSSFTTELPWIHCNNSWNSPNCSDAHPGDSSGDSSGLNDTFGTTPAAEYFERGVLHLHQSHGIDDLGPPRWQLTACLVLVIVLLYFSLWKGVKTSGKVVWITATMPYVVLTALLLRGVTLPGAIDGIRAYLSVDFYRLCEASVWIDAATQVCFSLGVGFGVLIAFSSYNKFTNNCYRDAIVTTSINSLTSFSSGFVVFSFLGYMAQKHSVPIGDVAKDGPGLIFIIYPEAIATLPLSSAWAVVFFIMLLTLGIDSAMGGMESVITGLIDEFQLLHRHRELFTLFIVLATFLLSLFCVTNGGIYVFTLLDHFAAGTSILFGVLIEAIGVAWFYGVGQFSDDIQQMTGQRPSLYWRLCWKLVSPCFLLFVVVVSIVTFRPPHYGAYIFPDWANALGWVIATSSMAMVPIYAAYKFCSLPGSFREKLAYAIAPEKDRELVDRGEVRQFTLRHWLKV

CC(N)Cc1c[nH]c2ccc(OCc3cccs3)cc12 (centres unmarked) [BW, 1-[5-(thiophen-2-ylmethoxy)-1H-indol-3-yl]propan-2-amine]
Tmax ([1]; in vivo): ~30 min
concentration at 4 h ([1]; in vivo): 860 ng/g
concentration at 8 h ([1]; in vivo): 14.4 ng/mL and 417 ng/g
half-life ([1]; plasma): 66 min
IC50 (5-HT5A): 1380 nM
inhibition at 10 µM (5-HT5A; dose-response study, maximal concentration 10 µM, [3H]LSD): 84.3%
microglial morphology (proportion of resting, activated, phagocytic, dystrophic Iba1+ cells) ([2]; 3 mg/kg/d vs vehicle): No statistically significant difference
loss of motor neurons (ChAT positive cells in the ventral spinal cord) ([2]; 3 mg/kg/d): did not modify
IC50 (5-HT1B): 182 nM
%Binding inhibition at 10 µM (5-HT1B; dose-response study, maximal concentration 10 µM, [3H]5-CT, 10 µM): 101.39%
inhibition at 10 µM (5-HT1B; read-out: %Binding inhibition at 10 µM, dose-response study, maximal concentration 10 µM, [3H]5-CT): 100%
IC50 (5-HT1A): 589 nM
inhibition at 10 µM (5-HT1A; dose-response study, maximal concentration 10 µM, [3H]8-OH-DPAT): 95%
%Binding inhibition at 10 µM (5-HT1A; dose-response study, maximal concentration 10 µM, [3H]8-OH-DPAT, 10 µM): 95.26%
median survival (Sod1^G86R mice; 1 mg/kg/d): 107 days
median survival (Sod1^G86R mice; 3 mg/kg/d): 109 days
disease onset (Sod1^G86R mice; 1 or 3 mg/kg/d, compared to vehicle): unchanged
inhibition at 10 µM (DAT): 81.9%
pIC50 (Ca^2+ channel, ds [3]; [3H]diltiazem competition): 6.11
%Binding inhibition at 10 µM (Ca^2+ channel, ds [3]; dose-response study, maximal concentration 10 µM, [3H]diltiazem): 35.80%
%Binding inhibition at 10 µM (Ca^2+ channel, ds [4]): 66.3%
inhibition at 10 µM (5-HT2B): 100%
mitral valve thickness (mitral valve): 60.2 µm
